Results from patent US20040014814A1, “Compositions and methods for delaying preventing rejuvenating or reversing senescence in cells” (priority 2000, published 2004).

Experiments:
[1] = system: non-enzymic glycation; design: key: 0 = zero effect; 10 = maximum effect; conditions: summary grade; footnote (2) literature; cited from earlier work
[2] = system: MRC-5 cells; assay: Uptake of radio-labeled (3H) compounds by MRC-5 fibroblast cells; conditions: after 48 hours
Procedure: For MRC-5 cells, (3H)—carnosine and acetyl carnosine were added to the medium of near confluent 60mm culture dishes. At different time points cells were washed three times with phosphate buffered saline, cells harvested and cell-associated radioactivity determined using Packard Starscint scintillation fluid.
The rate of uptake of carnosine and acetyl-carnosine by MRC-5 cells was studied using radio-labeled tritiated (3H) carnosine and acetyl-carnosine compounds. The uptake was measured in MRC-5 cells at passage 28 over a 48 hour period (FIG. 3A).

[3] = system: p16^INK4/CDKN2; assay: Immunohistochemical staining of p16 in MRC-5 cell nuclei; assay type: cell-based, human; conditions: senescent cells, old media replaced with supplemented media, after a few days
Procedure: Senescent cells treated with acetyl-carnosine acquire a younger phenotype and no longer express p16 (C). Cells were stained from passage 30 until senescence was reached (approximately passage 65) in order to determine the effectiveness of p16 as a reliable biomarker.
Tissue culture cells were fixed by slowly infusing 4% paraformaldehyde in 0.1M sodium phosphate buffer pH 7.4 into the culture medium. This solution was then replaced with fixative alone and stored at −20° C. for 30 minutes. Cultures were then defrosted for 5 minutes at 37° C. and then washed with 3 changes of the 0.1M sodium phosphate buffer. […]
Three primary antibodies were used in this study: (i) murine monoclonal antibodies against cyclin-dependent kinase inhibitor p27^kipl (clone SX53G8, IgG, Loto38, DAKO, diluted 1:200); (ii) murine monoclonal antibodies against cyclin-dependent kinase inhibitor p21^WAP/CIPI (clone SX118, IgG, Loto88, DAKO, diluted 1:200); and (iii) murine monoclonal antibodies against cyclin-dependent kinase inhibitor p16^INK4/CDKN2 (clone DCS-50, IgG, Lot 077H4821, Sigma, diluted 1:200). […] An estimate of positively stained cells to specific antigens was determined. […]

CC(=O)NCCC(=O)N[C@@H](Cc1cnc[nH]1)C(=O)O [N-acetyl carnosine]
anti-glycation (2) [1]: 0 | Number of cells greater than with carnosine ([2]; MRC-5 cells): 42% | Number of cells growing in supplemented media ([2]; MRC-5 cells): 3.4×10^6 | Uptake relative to carnosine on a per cell basis ([2]; MRC-5 cells): 35% | Uptake of (3H) compound by MRC-5 cells ([2]; cells at passage 28): 0.16% | Expression of p16 in the nucleus [3]: no expression of p16 in the nucleus
